Results published in patent publication US9643957B2, “Heterocyclic compounds having cholesterol 24-hydroxylase activity” (TAKEDA PHARMACEUTICAL COMPANY LIMITED, priority 2012, dated 2017).

Molecular target: T1, human CH24H (Homo sapiens, UniProt Q9Y6A2)
T1 construct: Using Full-Length Mammalian Gene Collection No. 4819975 (Invitrogen) as a template; made in house; host or cells: FreeStyle 293-F cells, transient transfection with pcDNA3.1(+)/hCH24H; lysate supernatant, not purified
Experiment: Measurement of CH24H inhibitory activity (24-HC produced from [14C] cholesterol by human CH24H lysate)
Format: biochemical
Conditions: 1 μM test compound, [14C] cholesterol 15 μM, 37° C. for 5 hr, read-out: Inhibitory Rate in 1 μM (%)
Protocol: The expression of human CH24H was performed using FreeStyle 293 Expression System (Invitrogen). […] After transfection, the cells were cultured at 37° C., 8% CO2 with shaking at 125 rpm for 2 days. The cells were collected by centrifugation, and suspended in a suspension buffer (100 mM potassium phosphate (pH 7.4), 0.1 mM EDTA, 1 mM DTT, 20% Glycerol). The suspended product was disrupted by a polytron homogenizer (manufactured by Kinematica), and centrifuged at 9000×g for 10 min, and the supernatant was collected. The collected supernatant was cryopreserved (−80° C.) as a human CH24H lysate standard product.
For the measurement of CH24H inhibitory activity, using the human CH24H lysate prepared in Experimental Example 2, the amount of 24-HC produced from cholesterol by catalytic activity of CH24H was measured in the presence of a test compound, and compared with that measured in the absence of the test compound. That is, a test compound solution at various concentrations was mixed with a reaction buffer (50 mM potassium phosphate containing 0.1% BSA and Complete, EDTA-free, pH 7.4) and human CH24H lysate. Then, [^14C] cholesterol (53 mCi/mmol specific activity, 15 μM) was added, and CH24H reaction was performed at 37° C. for 5 hr. After completion of the reaction, a quenching solution consisting of chloroform/methanol/distilled water (2:2:1 v/v) was added, and the resulting 24-HC was extracted by shaking. The extract was applied to silica gel thin layer chromatography (ethyl acetate:toluene=4:6), and the obtained ^14C-24HC fraction was measured with BAS2500 (Fujifilm Corporation).
The inhibitory rate (%) was calculated from the ratio of radioactivity in the presence of a test compound relative to the radioactivity in the absence of the test compound.

T1 sequence (Q9Y6A2 whole entry): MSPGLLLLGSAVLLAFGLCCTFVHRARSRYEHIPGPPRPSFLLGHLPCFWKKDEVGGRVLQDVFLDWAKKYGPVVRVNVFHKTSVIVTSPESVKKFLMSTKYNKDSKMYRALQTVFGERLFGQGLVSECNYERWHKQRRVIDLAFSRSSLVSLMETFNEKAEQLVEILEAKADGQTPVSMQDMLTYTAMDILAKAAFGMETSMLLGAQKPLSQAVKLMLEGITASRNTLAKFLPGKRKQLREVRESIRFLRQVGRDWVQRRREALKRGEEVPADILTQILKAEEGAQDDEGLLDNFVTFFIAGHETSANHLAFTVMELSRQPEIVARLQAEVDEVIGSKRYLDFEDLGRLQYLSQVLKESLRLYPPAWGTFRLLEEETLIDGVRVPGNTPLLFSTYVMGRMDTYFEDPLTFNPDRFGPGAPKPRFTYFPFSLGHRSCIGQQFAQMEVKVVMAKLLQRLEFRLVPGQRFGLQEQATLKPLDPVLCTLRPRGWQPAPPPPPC

| SMILES | inhibition at 1 µM |
| --- | --- |
| Cc1nnc(-c2ccncc2N2CCC(F)(C(=O)N3CCC[C@@H]3C#N)CC2)s1 [Example 131, (2R)-1-((4-fluoro-1-(4-(5-methyl-1,3,4-thiadiazol-2-yl)pyridin-3-yl)piperidin-4-yl)carbonyl)pyrrolidine-2-carbonitrile] | 87% |
| O=C(NCc1ccccc1)N1CCN(c2cncnc2-c2ccccc2)CC1 [Example 175, N-benzyl-4-(4-phenylpyrimidin-5-yl)piperazine-1-carboxamide] | 95% |
| CN(C(=O)C1CCN(c2cnccc2-n2cc(Cl)cn2)CC1)[C@H]1CCOC1 [Example 307, 1-(4-(4-chloro-1H-pyrazol-1-yl)pyridin-3-yl)-N-methyl-N-((3S)-tetrahydrofuran-3-yl)piperidine-4-carboxamide] | 81% |
| O=C(NC1CC1)C1CCN(c2cncnc2-c2ccc(F)cc2)CC1 [Example 193, N-cyclopropyl-1-(4-(4-fluorophenyl)pyrimidin-5-yl)piperidine-4-carboxamide] | 90% |
| N#C[C@H]1CC(F)(F)CN1C(=O)C1CCN(c2cnccc2-c2ccccn2)CC1 [Example 143, (2R)-1-((1-(2,4′-bipyridin-3′-yl)piperidin-4-yl)carbonyl)-4,4-difluoropyrrolidine-2-carbonitrile] | 98% |
| O=C(C1CCN(c2cnccc2-n2cc(Br)cn2)CC1)N1CC[C@H](F)C1 [Example 318, (1-(4-(4-bromo-1H-pyrazol-1-yl)pyridin-3-yl)piperidin-4-yl)((3S)-3-fluoropyrrolidin-1-yl)methanone] | 94% |
| O=C(NC1CCOCC1)C1CCN(c2cnccc2-n2cc(Cl)cn2)CC1 [Example 24, 1-(4-(4-chloro-1H-pyrazol-1-yl)pyridin-3-yl)-N-(tetrahydro-2H-pyran-4-yl)piperidine-4-carboxamide] | 96% |
| O=C(C1CC1)N1CCN(c2cnccc2-c2ccccc2)CC1 [Example 152, cyclopropyl(4-(4-phenylpyridin-3-yl)piperazin-1-yl)methanone] | 90% |
| Cc1cnn(-c2ccncc2N2CCC(C(=O)N(C)[C@@H]3CCOC3)CC2)c1 [Example 306, N-methyl-1-(4-(4-methyl-1H-pyrazol-1-yl)pyridin-3-yl)-N-((3R)-tetrahydrofuran-3-yl)piperidine-4-carboxamide] | 85% |
| Cc1cnn(-c2ccncc2N2CCC(C(=O)N3CCC[C@H]3C(N)=O)CC2)c1 [Example 114, 1-((1-(4-(4-methyl-1H-pyrazol-1-yl)pyridin-3-yl)piperidin-4-yl)carbonyl)-L-prolinamide] | 86% |
| Cc1cnn(-c2ccncc2N2CCN(C(=O)N(C)Cc3ccc(F)cc3)CC2)c1 [Example 297, N-(4-fluorobenzyl)-N-methyl-4-(4-(4-methyl-1H-pyrazol-1-yl)pyridin-3-yl)piperazine-1-carboxamide] | 84% |
| N#C[C@@H]1CC(F)(F)CN1C(=O)C1CCN(c2cnccc2-n2cc(Cl)cn2)CC1 [Example 119, (2S)-1-((1-(4-(4-chloro-1H-pyrazol-1-yl)pyridin-3-yl)piperidin-4-yl)carbonyl)-4,4-difluoropyrrolidine-2-carbonitrile] | 93% |
| Cc1cnn(-c2ccncc2N2CCC(C(=O)N(C)C3CCOCC3)CC2)c1 [Example 296, N-methyl-1-(4-(4-methyl-1H-pyrazol-1-yl)pyridin-3-yl)-N-(tetrahydro-2H-pyran-4-yl)piperidine-4-carboxamide] | 86% |
| O=C(C1CCN(c2cnccc2-n2cc(Cl)cn2)CC1)N1CC(F)C1 [Example 281, (1-(4-(4-chloro-1H-pyrazol-1-yl)pyridin-3-yl)piperidin-4-yl) (3-fluoroazetidin-1-yl)methanone] | 84% |
| CN1CCC2(CCN(c3cncnc3-c3ccc(F)cc3)CC2)C1=O [Example 222, 8-(4-(4-fluorophenyl)pyrimidin-5-yl)-2-methyl-2,8-diazaspiro[4.5]decan-1-one] | 92% |
